From patent US8940892B2, “Triazine derivatives for use in the treatment of malaria” (CSIR, priority 2009, dated 2015)

Assays:
[1] = tested on: Plasmodium falciparum (FCR-3); assay: Antimalarial activity against Plasmodium falciparum FCR-3; format: cell-based; details: FCR3, FCR-3 strain
[2] = Cytotoxicity SRB assay (HeLa); format: cell-based; details: human, HeLa cells, read-out: Cytotox SRB (HeLa) IC50
[3] = tested on: P. falciparum strains resistant to Pyr and CG; details: even against strains highly resistant to other DHFR inhibitors; cited from earlier work
[4] = in vivo; cited from earlier work

SMILES | IC50 [1] | IC50 [2] | effective concentration in vitro [3] | gastrointestinal (GI) tolerability [4]
CC1(C)N=C(N)N=C(N)N1c1ccc(Cl)cc1 [No. 1, Cycloguanil, reference compound] | 8.15 ± 4.13 µM |  |  | 
NC1=NC(c2ccccc2)N(Cc2ccc(Cl)c(Cl)c2)C(N)=N1 (stereo not shown) [No. 2] | 4.32 ± 1.19 µM |  |  | 
NC1=NC(c2ccccc2)N(CCc2ccc(Cl)cc2)C(N)=N1 (stereo not shown) [No. 3] | 7.16 ± 0.626 µM |  |  | 
NC1=NC(c2ccccc2)N(CCc2ccc(Cl)c(Cl)c2)C(N)=N1 (stereo not shown) [No. 4] | 4.77 ± 0.297 µM |  |  | 
NC1=NC(c2ccccc2)N(CCOc2ccc(Cl)cc2)C(N)=N1 (stereo not shown) [No. 5] | 4.83 ± 0.689 µM |  |  | 
NC1=NC(c2ccccc2)N(CCOc2ccc(Cl)c(Cl)c2)C(N)=N1 (stereo not shown) [No. 6] | 2.12 ± 0.75 µM |  |  | 
NC1=NC(c2ccccc2Cl)N(CCCCOc2ccc(Cl)c(Cl)c2)C(N)=N1 (stereo not shown) [No. 7] | 2.57 ± 0.7 µM |  |  | 
NC1=NC(c2ccccc2)N(CCCOc2ccc(Cl)cc2)C(N)=N1 (stereo not shown) [No. 8] | 0.055 ± 0.01 µM | 39 µM |  | 
NC1=NC(c2ccccc2)N(CCCOc2ccc(Cl)c(Cl)c2)C(N)=N1 (stereo not shown) [No. 9] | 0.0398 ± 0.01 µM | 33.5 µM |  | 
NC1=NC(c2ccc(C(F)(F)F)cc2)N(CCCOc2ccc(Cl)cc2)C(N)=N1 (stereo not shown) [No. 10] | 3.37 ± 0.168 µM | 11 µM |  | 
NC1=NC(c2ccccc2)N(CCCOc2ccc(Cl)cc2Cl)C(N)=N1 (stereo not shown) [No. 11] | 0.000151 ± 7.9e-05 µM | 32.6 µM |  | 
NC1=NC(c2ccccc2)N(CCCOc2cccc(C(F)(F)F)c2)C(N)=N1 (stereo not shown) [No. 12] | 0.0307 ± 0.0102 µM | 14.2 µM |  | 
COc1ccc(OCCCN2C(N)=NC(N)=NC2c2ccccc2)cc1 (stereo not shown) [No. 13] | 0.0603 ± 0.0087 µM | 253 µM |  | 
NC1=NC(c2ccccc2)N(CCCOc2ccccc2F)C(N)=N1 (stereo not shown) [No. 14] | 0.525 ± 0.0762 µM | 67.6 µM |  | 
NC1=NC(c2ccccc2)N(CCCOc2ccccc2Cl)C(N)=N1 (stereo not shown) [No. 15] | 0.171 ± 0.027 µM | 88.8 µM |  | 
NC1=NC(c2ccccc2)N(CCCOc2ccc(F)cc2)C(N)=N1 (stereo not shown) [No. 16] | 0.395 ± 0.109 µM |  |  | 
NC1=NC(c2ccccc2)N(CCCOc2ccc(C(F)(F)F)cc2)C(N)=N1 (stereo not shown) [No. 17] | 0.0444 ± 0.0068 µM |  |  | 
NC1=NC(c2ccccc2Cl)N(CCCOc2ccc(Cl)cc2)C(N)=N1 (stereo not shown) [No. 18] | 0.859 µM | 15.7 µM |  | 
COc1ccc(C2N=C(N)N=C(N)N2CCCOc2ccc(Cl)cc2)cc1 (stereo not shown) [No. 19] | 0.046 ± 0.017 µM | 25 µM |  | 
NC1=NC(c2ccc(Cl)c(F)c2)N(CCCOc2ccc(Cl)cc2)C(N)=N1 (stereo not shown) [No. 20] | 1.59 µM | 13.7 µM |  | 
NC1=NC(c2cccc(Cl)c2)N(CCCOc2ccc(Cl)cc2)C(N)=N1 (stereo not shown) [No. 21] | 0.156 ± 0.012 µM | 14.1 µM |  | 
NC1=NC(c2ccc(F)cc2)N(CCCOc2ccc(Cl)cc2)C(N)=N1 (stereo not shown) [No. 22] | 0.155 ± 0.048 µM |  |  | 
CC1(C)N=C(N)N=C(N)N1OCCCOc1cc(Cl)c(Cl)cc1Cl [WR99210] |  |  | nanomolar (nM) range | unacceptable

The next lines start with results.

IC50 [1] | SMILES | IC50 [2] | effective concentration in vitro [3] | gastrointestinal (GI) tolerability [4]
0.412 ± 0.08 µM | NC1=NC(c2ccccc2F)N(CCCOc2ccc(Cl)cc2)C(N)=N1 (stereo not shown) [No. 23] | 52.2 µM |  | 
3.24 ± 0.451 µM | NC1=NC(c2ccccc2C(F)(F)F)N(CCCOc2ccc(Cl)cc2)C(N)=N1 (stereo not shown) [No. 24] | 19 µM |  | 
4.53 ± 0.631 µM | NC1=NC(c2ccc(C(F)(F)F)cc2)N(CCCOc2ccc(Cl)c(Cl)c2)C(N)=N1 (stereo not shown) [No. 25] | 13.1 µM |  | 
3.06 ± 0.042 µM | NC1=NC(c2ccccc2C(F)(F)F)N(CCCOc2ccc(Cl)c(Cl)c2)C(N)=N1 (stereo not shown) [No. 26] | 11.8 µM |  | 
0.926 ± 0.128 µM | NC1=NC(c2cc(Cl)ccc2Cl)N(CCCOc2ccc(Cl)cc2)C(N)=N1 (stereo not shown) [No. 27] | 10.9 µM |  | 
0.337 ± 0.095 µM | NC1=NC(c2ccccc2F)N(CCCOc2ccc(Cl)c(Cl)c2)C(N)=N1 (stereo not shown) [No. 28] | 29.5 µM |  | 
35.8 ± 8.97 µM | NC1=NC(c2ccc(F)cc2)N(CCCOc2ccc(Cl)c(Cl)c2)C(N)=N1 (stereo not shown) [No. 29] |  |  | 
0.591 ± 0.077 µM | NC1=NC(c2ccc(Cl)c(F)c2)N(CCCOc2ccc(Cl)c(Cl)c2)C(N)=N1 (stereo not shown) [No. 30] | 14.5 µM |  | 
8.61 ± 0.998 µM | NC1=NC(c2ccccc2Cl)N(CCCOc2ccc(Cl)c(Cl)c2)C(N)=N1 (stereo not shown) [No. 31] | 13.7 µM |  | 
0.156 ± 0.129 µM | NC1=NC(c2ccc(Cl)cc2)N(CCCOc2ccc(Cl)cc2)C(N)=N1 (stereo not shown) [No. 32] | 15.6 µM |  | 
0.679 ± 0.221 µM | NC1=NC(c2cccc(Cl)c2F)N(CCCOc2ccc(Cl)cc2)C(N)=N1 (stereo not shown) [No. 33] | 23 µM |  | 
0.061 ± 0.036 µM | NC1=NC(c2ccc(Cl)cc2)N(CCCOc2ccc(Cl)c(Cl)c2)C(N)=N1 (stereo not shown) [No. 34] | 13.4 µM |  | 
0.098 ± 0.005 µM | NC1=NC(c2cccc(Cl)c2F)N(CCCOc2ccc(Cl)c(Cl)c2)C(N)=N1 (stereo not shown) [No. 35] | 13.6 µM |  | 
2.39 ± 0.03 µM | NC1=NC(c2ccc(SC(F)(F)F)cc2)N(CCCOc2ccc(Cl)cc2)C(N)=N1 (stereo not shown) [No. 36] |  |  | 
0.077 ± 0.032 µM | COc1cccc(C2N=C(N)N=C(N)N2CCCOc2ccc(Cl)cc2)c1F (stereo not shown) [No. 37] | 33.3 µM |  | 
0.163 ± 0.05 µM | NC1=NC(c2ccc(F)cc2F)N(CCCOc2ccc(Cl)cc2)C(N)=N1 (stereo not shown) [No. 38] | 31.8 µM |  | 
2.51 ± 0.667 µM | NC1=NC(c2ccc(Cl)cc2Cl)N(CCCOc2ccc(Cl)cc2)C(N)=N1 (stereo not shown) [No. 39] | 12.1 µM |  | 
> 50 µM | NC1=NC(c2cccc(OC(F)(F)F)c2)N(CCCOc2ccc(Cl)cc2)C(N)=N1 (stereo not shown) [No. 40] |  |  | 
0.05 ± 0.04 µM | Cc1cccc(C2N=C(N)N=C(N)N2CCCOc2ccc(Cl)cc2)c1 (stereo not shown) [No. 41] |  |  | 
0.047 ± 0.01 µM | COc1cc(C)ccc1OCCCN1C(N)=NC(N)=NC1c1ccccc1 (stereo not shown) [No. 42] |  |  | 
0.024 ± 0.017 µM | NC1=NC(c2ccccc2)N(CCCOc2ccc(Br)cc2)C(N)=N1 (stereo not shown) [No. 43] |  |  | 
3.98 ± 0.612 µM | NC1=NC(c2ccc(C(F)(F)F)cc2)N(CCCCCOc2ccc(Cl)cc2)C(N)=N1 (stereo not shown) [No. 44] |  |  | 
